Measured values from patent US20250340538A1, “IMIDAZOLONE DERIVATIVES AS INHIBITORS OF PROTEIN KINASES IN PARTICULAR DYRK1A, CLK1 AND/OR CLK4” (PERHA PHARMACEUTICALS, priority 2021, published 2025).
Read-outs that look alike come from different tables or passages of the source.

Key:
[1] = target: T1, CLK1 (Homo sapiens, UniProt P49759); assay: Radiometric protein kinase assay (33PanQinase Activity Assay), CLK1; assay type: biochemical; conditions: read-out: Potency Class CLK1
T1 construct: GST-fusion or His-tag (not specified per kinase); purchased ProQinase GmbH; host or cells: Sf9 insect cells or E. coli (not specified per kinase)
Description: Assays were performed by ProQinase GmbH (Engesserstr. 4, D-79108 Freiburg, Germany. www.proqinase.com). The IC50 profile of all compounds was determined using 12 protein kinases (CDK2/cyclin E, CK1ε, CLK1, 2, 3, 4, DYRK1A, 1B, 2, 3, 4, GSK3β).
(§1) The compounds were provided as […] in 100% DMSO. Prior to testing, the 1 μM stock solutions were subjected to a serial, semi-logarithmic dilution using 100% DMSO as a solvent. […] In the process, 90 μl H2O were added to each well of each compound dilution plate. To minimize potential precipitation, the H2O was added to each plate only a few minutes before the transfer of the compound solutions into the assay plates. The plate was shaken thoroughly, resulting in a compound dilution plate/10% DMSO.
(§2) For the assays (see below), 5 μL solution from each well of the compound dilution plates/10% DMSO were transferred into the assay plates. The final volume of the assay was 50 μL. All compounds were tested at 10 final assay concentrations in the range from 10 μM to 30 nM. The final DMSO concentration in the reaction cocktails was 1% in all cases.
(§3) All protein kinases provided by ProQinase were expressed in Sf9 insect cells or in E. coli as recombinant GST-fusion proteins or His-tagged proteins, either as full-length or enzymatically active fragments. All kinases were produced from human cDNAs and purified by either GSH-affinity chromatography or immobilized metal. Affinity tags were removed from a number of kinases during purification. The purity of the protein kinases was examined by SDS-PAGE/Coomassie staining, the identity was checked by mass spectroscopy.
(§4) A radiometric protein kinase assay (33PanQinase® Activity Assay) was used for measuring the kinase activity of the 12 protein kinases. All kinase assays were performed in 96-well FlashPlates™ from PerkinElmer (Boston, MA, USA) in a 50 μL reaction volume. The reaction cocktail was pipetted in four steps in the following order: • 25 μL of assay buffer (standard buffer/[γ-^33P]-ATP), • 10 μL of ATP solution (in H2O), • 5 μL of test compound (in 10% DMSO), • 10 μL of enzyme/substrate mixture.
(§5) The reaction cocktails were incubated at 30° C. for 60 minutes. The reaction was stopped with 50 μL of 2% (v/v) H3PO4, plates were aspirated and washed two times with 200 μL 0.9% (w/v) NaCl. Incorporation of ^33Pi was determined with a microplate scintillation counter (Microbeta, Wallac). The IC50 values for all compounds were calculated from the dose response curves
As a parameter for assay quality, the Z′-factor (Zhang et al., J. Biomol. Screen. 2: 67-73, 1999) for the low and high controls of each assay plate (n=8) was used. ProQinase's criterion for repetition of an assay plate is a Z′-factor below 0.4 (Iversen et al., J. Biomol. Screen. 3: 247-252, 2006).

[2] = target: T2, DYRK1A (Homo sapiens, UniProt Q13627); assay: Radiometric protein kinase assay (33PanQinase Activity Assay), DYRK1A; assay type: biochemical; conditions: for Selectivity Class DYRK1A vs. CLK1: ratio of IC50 on CLK1 over IC50 on DYRK1A; for Selectivity Class DYRK1A vs. DYRK1B: ratio of IC50 on DYRK1B over IC50 on DYRK1A
T2 construct: GST-fusion or His-tag (not specified per kinase); purchased ProQinase GmbH; host or cells: Sf9 insect cells or E. coli (not specified per kinase)
Description: The IC50 profile of all compounds was determined using 12 protein kinases (CDK2/cyclin E, CK1ε, CLK1, 2, 3, 4, DYRK1A, 1B, 2, 3, 4, GSK3β).
as §1, §2, §3, §4, §5

[3] = class by IC50 on CLK1, from dose-response curves
[4] = class by IC50 on DYRK1A, from dose-response curves, read-out: Potency Class DYRK1A

T1 sequence (P49759 whole entry, the tested form may be a part): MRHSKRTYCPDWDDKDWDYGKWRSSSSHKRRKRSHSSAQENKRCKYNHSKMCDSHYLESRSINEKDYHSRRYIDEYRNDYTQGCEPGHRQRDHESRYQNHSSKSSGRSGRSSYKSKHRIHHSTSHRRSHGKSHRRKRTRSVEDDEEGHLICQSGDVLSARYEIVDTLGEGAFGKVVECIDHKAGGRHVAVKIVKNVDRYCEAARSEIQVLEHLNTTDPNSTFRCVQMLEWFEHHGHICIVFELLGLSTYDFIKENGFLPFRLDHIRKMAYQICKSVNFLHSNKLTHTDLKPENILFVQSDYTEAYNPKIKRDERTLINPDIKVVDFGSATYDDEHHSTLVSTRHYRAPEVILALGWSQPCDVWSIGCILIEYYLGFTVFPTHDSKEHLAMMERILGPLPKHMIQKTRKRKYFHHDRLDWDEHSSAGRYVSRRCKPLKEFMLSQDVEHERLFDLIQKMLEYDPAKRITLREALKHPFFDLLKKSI

O=C1NC(N[C@@H]2CCC[C@@H](O)CC2)=N/C1=C\c1ccc2nccnc2c1 (racemic) [Compound 6, (±)-(4Z)-2-[[trans-4-hydroxycycloheptyl]amino]-4-(quinoxalin-6-ylmethylene)-1H-imidazol-5-one] was tested, and the IC50 [1, 3] was > 0.05 µM.

With CO[C@@H]1CCC[C@@H](NC2=N/C(=C\c3ccc4nccnc4c3)C(=O)N2)CC1 (racemic) [Compound 7, (+)-(4Z)-2-[[trans-4-methoxycycloheptyl]amino]-4-(quinoxalin-6-ylmethylene)-1H-imidazol-5-one] the IC50 [2, 4] was > 0.05 µM, the “Selectivity Class DYRK1A vs. CLK1” value [2] was “II (ratio between 2 and 10 fold)” and the “Selectivity Class DYRK1A vs. DYRK1B” value [2] was “II (ratio between 2 and 10 fold)”. The IC50 [1, 3] was > 0.05 µM.

CO[C@H]1CCCC[C@@H](NC2=N/C(=C\c3ccc4nccnc4c3)C(=O)N2)C1 (racemic) [Compound 8, (+)-(4Z)-2-[[cis-3-methoxycycloheptyl]amino]-4-(quinoxalin-6-ylmethylene)-1H-imidazol-5-one] was tested, and the IC50 [1, 3] was > 0.05 µM.

With CC1(C)CCC(NC2=N/C(=C\c3ccc4nccnc4c3)C(=O)N2)CO1 (racemic) [Compound 36, (±)-(4Z)-2-[(6,6-dimethyltetrahydropyran-3-yl)amino]-4-(quinoxalin-6-ylmethylene)-1H-imidazol-5-one] the IC50 [2, 4] was > 0.05 µM, the “Selectivity Class DYRK1A vs. CLK1” value [2] was “II (ratio between 2 and 10 fold)” and the “Selectivity Class DYRK1A vs. DYRK1B” value [2] was “II (ratio between 2 and 10 fold)”. The IC50 [1, 3] was > 0.05 µM.

With O=C1NC(NC2CCCCOC2)=N/C1=C\c1ccc2nccnc2c1 (racemic) [Compound 41, (4Z)-2-(Oxepan-3-ylamino)-4-(quinoxalin-6-ylmethylene)-1H-imidazol-5-one] the IC50 [2, 4] was > 0.05 µM, the “Selectivity Class DYRK1A vs. CLK1” value [2] was “III (ratio between 0.5 and 2 fold)” and the “Selectivity Class DYRK1A vs. DYRK1B” value [2] was “II (ratio between 2 and 10 fold)”. The IC50 [1, 3] was > 0.05 µM.

For O=C1NC(NC2CCCCCC2)=N/C1=C\c1ccc2nccnc2c1 [Compound 1, (4Z)-2-(cycloheptylamino)-4-(quinoxalin-6-ylmethylene)-1H-imidazol-5-one], the IC50 [1, 3] was > 0.05 µM.

In the case of O=C1NC(NC2CCCCCCC2)=N/C1=C\c1ccc2nccnc2c1 [Compound 2, (4Z)-2-(cyclooctylamino)-4-(quinoxalin-6-ylmethylene)-1H-imidazol-5-one], the IC50 [1, 3] is reported as > 0.05 µM.

With O=C1NC(NCC2CCCCC2)=N/C1=C\c1ccc2nccnc2c1 [Compound 3, (4Z)-2-(cyclohexylmethylamino)-4-(quinoxalin-6-ylmethylene)-1H-imidazol-5-one] the IC50 [2, 4] was > 0.05 µM, the “Selectivity Class DYRK1A vs. CLK1” value [2] was “III (ratio between 0.5 and 2 fold)” and the “Selectivity Class DYRK1A vs. DYRK1B” value [2] was “II (ratio between 2 and 10 fold)”. The IC50 [1, 3] was > 0.05 µM.

With CO[C@@H]1CCC[C@H]1NC1=N/C(=C\c2ccc3nccnc3c2)C(=O)N1 [Compound 4, (4Z)-2-[[(1R,2R)-2-methoxycyclopentyl]amino]-4-(quinoxalin-6-ylmethylene)-1H-imidazol-5-one] the IC50 [2, 4] was > 0.05 µM, the “Selectivity Class DYRK1A vs. CLK1” value [2] was “II (ratio between 2 and 10 fold)” and the “Selectivity Class DYRK1A vs. DYRK1B” value [2] was “II (ratio between 2 and 10 fold)”. The IC50 [1, 3] was > 0.05 µM.

For CO[C@H]1CCC[C@@H]1NC1=N/C(=C\c2ccc3nccnc3c2)C(=O)N1 [Compound 5, (4Z)-2-[[(1S,2S)-2-Methoxycyclopentyl]amino]-4-(quinoxalin-6-ylmethylene)-1H-imidazol-5-one], the IC50 [2, 4] was > 0.05 µM, the “Selectivity Class DYRK1A vs. CLK1” value [2] was “III (ratio between 0.5 and 2 fold)” and the “Selectivity Class DYRK1A vs. DYRK1B” value [2] was “II (ratio between 2 and 10 fold)”. The IC50 [1, 3] was > 0.05 µM.

In the case of CC(C)C[C@H](CO)NC1=N/C(=C\c2ccc3nccnc3c2)C(=O)N1 [Compound 9, (4Z)-2-[[(1R)-1-(hydroxymethyl)-3-methyl-butyl]amino]-4-(quinoxalin-6-ylmethylene)-1H-imidazol-5-one], the IC50 ([2]; IC50 class A to E, read-out: Potency Class DYRK1A) is reported as 0.005 to 0.01 µM, the IC50 [2, 4] is reported as 0.005 to 0.01 µM and the “Selectivity Class DYRK1A vs. CLK1” value [2] is reported as “II (ratio between 2 and 10 fold)”. The “Selectivity Class DYRK1A vs. DYRK1B” value [2] was “II (ratio between 2 and 10 fold)”, the IC50 ([2]; read-out: IC50 on DYRK1A (most potent DYRK1A inhibitors)) was ≤ 0.01 µM and the IC50 ([1]; IC50 class A to E) was 0.025 to 0.05 µM. For the same compound, the IC50 [1, 3] was 0.025 to 0.05 µM.

In the case of COC[C@@H](CC(C)C)NC1=N/C(=C\c2ccc3nccnc3c2)C(=O)N1 [Compound 10, (4Z)-2-[[(1R)-1-(methoxymethyl)-3-methyl-butyl]amino]-4-(quinoxalin-6-ylmethylene)-1H-imidazol-5-one], the IC50 [1, 3] is reported as > 0.05 µM.

CCOC[C@@H](CC(C)C)NC1=N/C(=C\c2ccc3nccnc3c2)C(=O)N1 [Compound 11, (4Z)-2-[[(1R)-1-(ethoxymethyl)-3-methyl-butyl]amino]-4-(quinoxalin-6-ylmethylene)-1H-imidazol-5-one] was tested, and the IC50 [2, 4] was 0.01 to 0.025 µM, the “Selectivity Class DYRK1A vs. CLK1” value [2] was “I (ratio of IC50 on CLK1 or DYRK1B over IC50 on DYRK1A ≥10 fold (most DYRK1A-selective compounds))” and the “Selectivity Class DYRK1A vs. DYRK1B” value [2] was “II (ratio between 2 and 10 fold)”. For the same compound, the IC50 [1, 3] was > 0.05 µM.

In the case of CC(C)C[C@H](COCc1ccccc1)NC1=N/C(=C\c2ccc3nccnc3c2)C(=O)N1 [Compound 12, (4Z)-2-[[(1R)-1-(benzyloxymethyl)-3-methyl-butyl]amino]-4-(quinoxalin-6-ylmethylene)-1H-imidazol-5-one], the IC50 [2, 4] is reported as > 0.05 µM, the “Selectivity Class DYRK1A vs. CLK1” value [2] is reported as “I (ratio of IC50 on CLK1 or DYRK1B over IC50 on DYRK1A ≥10 fold (most DYRK1A-selective compounds))” and the “Selectivity Class DYRK1A vs. DYRK1B” value [2] is reported as “II (ratio between 2 and 10 fold)”. The IC50 [1, 3] was > 0.05 µM.

For CC(C)C[C@H](COCc1ccc(F)cc1)NC1=N/C(=C\c2ccc3nccnc3c2)C(=O)N1 [Compound 13, (4Z)-2-[[(1R)-1-[(4-fluorophenyl)methoxymethyl]-3-methyl-butyl]amino]-4-(quinoxalin-6-ylmethylene)-1H-imidazol-5-one], the IC50 [1, 3] was > 0.05 µM.

In the case of CC(C)C[C@H](CF)NC1=N/C(=C\c2ccc3nccnc3c2)C(=O)N1 [Compound 14, (4Z)-2-[[(1R)-1-(fluoromethyl)-3-methyl-butyl]amino]-4-(quinoxalin-6-ylmethylene)-1H-imidazol-5-one], the IC50 [2, 4] is reported as 0.01 to 0.025 µM, the “Selectivity Class DYRK1A vs. CLK1” value [2] is reported as “II (ratio between 2 and 10 fold)” and the “Selectivity Class DYRK1A vs. DYRK1B” value [2] is reported as “II (ratio between 2 and 10 fold)”. The IC50 [1, 3] was > 0.05 µM.

In the case of CC(C)C[C@@H](CF)NC1=N/C(=C\c2ccc3nccnc3c2)C(=O)N1 [Compound 15, (4Z)-2-[[(1S)-1-(Fluoromethyl)-3-methyl-butyl]amino]-4-(quinoxalin-6-ylmethylene)-1H-imidazol-5-one], the IC50 [2, 4] is reported as > 0.05 µM, the “Selectivity Class DYRK1A vs. CLK1” value [2] is reported as “III (ratio between 0.5 and 2 fold)” and the “Selectivity Class DYRK1A vs. DYRK1B” value [2] is reported as “III (ratio between 0.5 and 2 fold)”. The IC50 [1, 3] was > 0.05 µM.

With O=C1NC(NCc2ccccc2)=N/C1=C\c1ccc2nccnc2c1 [Compound 21] the IC50 [2, 4] was > 0.05 µM, the “Selectivity Class DYRK1A vs. CLK1” value [2] was “III (ratio between 0.5 and 2 fold)” and the “Selectivity Class DYRK1A vs. DYRK1B” value [2] was “II (ratio between 2 and 10 fold)”. For the same compound, the IC50 [1, 3] was > 0.05 µM.

O=C1NC(N[C@@H](CO)c2ccccc2)=N/C1=C\c1ccc2nccnc2c1 [Compound 24, (4Z)-2-[[(1R)-2-hydroxy-1-phenyl-ethyl]amino]-4-(quinoxalin-6-ylmethylene)-1H-imidazol-5-one] gave an IC50 [1, 3] of 0.025 to 0.05 µM.

For O=C1NC(N[C@H](CO)c2ccccc2)=N/C1=C\c1ccc2nccnc2c1 [Compound 25, (4Z)-2-[[(1S)-2-Hydroxy-1-phenyl-ethyl]amino]-4-(quinoxalin-6-ylmethylene)-1H-imidazol-5-one], the IC50 [1, 3] was > 0.05 µM.

In the case of O=C1NC(NC2CCCCC2)=N/C1=C\c1ccc2nccnc2c1 [Compound 74, (4Z)-2-(Cyclohexylamino)-4-(quinoxalin-6-ylmethylene)-1H-imidazol-5-one], the IC50 [1, 3] is reported as > 0.05 µM.
